In patent US8597693B2, “Pharmaceutical composition with immunomodulating function” (Industrial Technology Research Institute, priority 2010, dated 2013):
Converted amounts (≈) assume the structure as drawn.

Experiments:
[1] = system: TNF-α; experiment: TNBS enteritis mouse model, TNF-α in colon infusion; type: in vivo, BABL/c mice; details: 0.6 mg/kg fed + 1.75 mg of TNBS; colon infusion after 48 hours; negative value = enhanced excretion
Text: (§1) The BABL/c mice were categorized into 4 groups. Each group had 6 […].

[2] = system: IL-6; experiment: TNBS enteritis mouse model, IL-6 in colon infusion; type: in vivo, BABL/c mice; details: 0.6 mg/kg fed + 1.75 mg of TNBS; colon infusion after 48 hours; negative value = enhanced excretion
Text: as §1

[3] = system: carrageenan induced hindpaw edema; experiment: Carrageenan induced hindpaw edema in a rat model; type: in vivo, Long-Evan rats; details: 3 mg/kg fed 1 hour before carrageenan (positive control), left hindpaw volume
Description: Long-Evan rats were fed with the extract (a) in Example 5 (i) in an amount of 250 mg/kg, 500 mg/kg, 1000 mg/kg, respectively. The positive control was fed with 3 mg/kg of indomethacin (NSAID). The negative control was fed with 10 ml/kg of 2% Tween 80 as a carrier. After 1 hour, the rats were injected 0.1 ml of 1% carrageenan on the left hindpaw. The volume of the rat's left hindpaw was measured by plethysmometer (Stoelting) at the 0, 1.5th, and 3rd hour after injection. The inhibition was calculated by the formula: Inhibition(%)=(Nt−Nv)/Nv×100
In the formula, Nt represents the left hindpaw volume of the rat fed with the ethanol extract; Nv represents the left hindpaw of the rat fed with the carrier.

[4] = system: TNF-α; experiment: Inhibition of TNF-α excretion in LPS-stimulated U937 cells; type: cell-based; details: Homo sapiens, U-937; PMA-activated U937, 30 minutes preincubation, LPS 4 hours, ELISA of supernatant
Description: The cell line, U937 (human monocyte cell line), was incubated in RPMI medium containing 50 ng/ml PMA (phorbol 12-myristate 13-acetate) (Sigma) and 10% fetal bovine serum (Moor et. al., Roswell Park Memorial Institute) for 24 hours. The cell line was then moved to the RPMI medium without PMA for further 48 hours. The activated U937 was seeded into a 96-well plate in a concentration of 1.6×10^5 cell/well. The wells were added 12.5 μg/ml, 25 μg/ml, 50 μg/ml and 100 μg/ml of kaerophyllin and 1 μg/ml, 3 μg/ml, 10 μg/ml and 30 μg/ml of isokaerphyllin and 10 μl of buffer, respectively. Each well was adjusted to a final volume of 190 μl. The plate was reacted under 37° C. for 30 minutes. Each well was added 10 μl of 20 μg/ml LPS to stimulate cells. After 4 hours under 37° C., the plate was centrifuged to collect the supernatants.
The amount of TNF-α in the supernatant was measured by ELISA (R&D System®) based on the control (DMSO). Meanwhile, the cell viability was measured by MTT assay (Sigma).

[5] = system: IL-6; experiment: Inhibition of IL-6 excretion in LPS-stimulated U937 cells; type: cell-based; details: Homo sapiens, U-937; PMA-activated U937, 30 minutes preincubation, LPS 16-18 hours, ELISA of supernatant
Description: The cell line, U937, was cultured like Example 13. The activated U937 was then seeded in a 96-well plate in a concentration of 1.6×10^5 cell/well. The wells were added 6.3 μg/ml, 12.5 μg/ml, 25 μg/ml and 50 μg/ml of kaerophyllin and 3.8 μg/ml, 7.5 μg/ml, 15 μg/ml and 30 μg/ml of isokaerphyllin and 10 μl of buffer, respectively. Each well was adjusted to a final volume of 190 μl. The plate was put under 37° C. for 30 minutes. Each well was added 10 μl of 20 μg/ml LPS to stimulate cells. After 16-18 hours under 37° C., the plate was centrifuged to collect the supernatants.
The amount of IL-6 in the supernatant was measured by ELISA (R&D System®) based on the control (DMSO). Meanwhile, the cell viability was measured by MTT assay (Sigma).

C[C@@H]1C[C@H]2[C@@H]3CCC4=CC(=O)C=C[C@]4(C)[C@@]3(F)[C@@H](O)C[C@]2(C)[C@@]1(O)C(=O)CO [DEX, dexamethasone]
Inhibition of TNF-α (%) [1]: 9%
Inhibition of IL-6 (%) [2]: −55%

COc1ccc2c(c1)c(CC(=O)O)c(C)n2C(=O)c1ccc(Cl)cc1 [indomethacin]
Inhibition at 0 hour (%) ([3]; 0 hour): 0%
Inhibition at the 1.5th hour (%) ([3]; 1.5th hour): 21%
Inhibition at the 3rd hour (%) ([3]; 3rd hour): 52%

COc1ccc(/C=C2\C(=O)OC[C@@H]2Cc2ccc3c(c2)OCO3)cc1OC [isokaerophyllin, cis-(3,4-dimethoxybenzylidene)-β-(3,4-methylenedioxylbenzyl)-γ-butyrolactone]
IC50 [4]: 18 ± 4 µg/mL (≈ 48.9 µM)
IC50 [5]: 24 ± 6 µg/mL (≈ 65.1 µM)
